Measured values as given in PMC3849129 (International journal of antimicrobial agents, 2013).
Positions of bridges follow the written chain, without caps; N, C: chain ends. Non-standard residues stand in square brackets, D forms with d. Residues, ends and D or L forms follow the SMILES beside them. *: point of attachment. Heptanoyl(6-Me) = CC(C)CCCCC(=O)*; X1 = CC[C@H](C)CCCCC(=O)*; Octanoyl = CCCCCCCC(=O)*; Dab = NCC[C@H](N)C(=O)O

What was measured:
[1] = Epithelial lining fluid; format: in vivo, Swiss Webster mice; conditions: for Time post dose up to which component could be quantified in ELF: mouse, in vivo
[2] = Serum pharmacokinetics after intravenous administration in mice; conditions: female, ND4 Swiss Webster, mouse, in vivo, 3 mg/kg
[3] = tested on: PA 9019; conditions: PA 9019, MDR bloodstream isolate; previously determined; cited from earlier work
[4] = tested on: Pseudomonas aeruginosa ATCC 27853 (PA 27853); conditions: previously determined; cited from earlier work

Compound: CC[C@H](C)CCCCC(=O)N[C@@H](CCN)C(=O)N[C@H](C(=O)N[C@@H](CCN)C(=O)N[C@H]1CCNC(=O)[C@H]([C@@H](C)O)NC(=O)[C@H](CCN)NC(=O)[C@H](CCN)NC(=O)[C@H](CC(C)C)NC(=O)[C@@H](Cc2ccccc2)NC(=O)[C@H](CCN)NC1=O)[C@@H](C)O [PB1, polymyxin B1] (X1-[Dab]T[Dab][Dab][Dab][dF]L[Dab][Dab]T; lactam 4-C)
- AUC ratio (liposome:solution) in epithelial lining fluid ([1]; ELF AUC0–6h, i.v. ca. 3 mg/kg, mice): 6.21
- half-life [2]: 19.2 min

Compound: CC(C)CCCCC(=O)N[C@@H](CCN)C(=O)N[C@H](C(=O)N[C@@H](CCN)C(=O)N[C@H]1CCNC(=O)[C@H]([C@@H](C)O)NC(=O)[C@H](CCN)NC(=O)[C@H](CCN)NC(=O)[C@H](CC(C)C)NC(=O)[C@@H](Cc2ccccc2)NC(=O)[C@H](CCN)NC1=O)[C@@H](C)O [PB2, polymyxin B2] ({Heptanoyl(6-Me)}-[Dab]T[Dab][Dab][Dab][dF]L[Dab][Dab]T; lactam 4-C)
- Time post dose up to which component could be quantified in ELF [1]: up to 2 h

Compound: CCCCCCCC(=O)N[C@@H](CCN)C(=O)N[C@H](C(=O)N[C@@H](CCN)C(=O)N[C@H]1CCNC(=O)[C@H]([C@@H](C)O)NC(=O)[C@H](CCN)NC(=O)[C@H](CCN)NC(=O)[C@H](CC(C)C)NC(=O)[C@@H](Cc2ccccc2)NC(=O)[C@H](CCN)NC1=O)[C@@H](C)O [PB3, polymyxin B3] (Octanoyl-[Dab]T[Dab][Dab][Dab][dF]L[Dab][Dab]T; lactam 4-C)
- Time post dose up to which component could be quantified in ELF [1]: up to 2 h

Compound: CC[C@H](C)CCCCC(=O)N[C@@H](CCN)C(=O)N[C@H](C(=O)N[C@@H](CCN)C(=O)N[C@H]1CCNC(=O)[C@H]([C@@H](C)O)NC(=O)[C@H](CCN)NC(=O)[C@H](CCN)NC(=O)[C@H]([C@@H](C)CC)NC(=O)[C@@H](Cc2ccccc2)NC(=O)[C@H](CCN)NC1=O)[C@@H](C)O [ile-PB1, isoleucine-B1] (X1-[Dab]T[Dab][Dab][Dab][dF]I[Dab][Dab]T; lactam 4-C)
- Time post dose up to which component could be quantified in ELF [1]: up to 2 h

Compound: Polymyxin B [PB]
- MIC [3]: 4 µg/mL
- MIC [4]: 2 µg/mL
